Measured values reported in patent US20170101431A1, “NUCLEOSIDE DERIVATIVES FOR THE TREATMENT OF CANCER” (IDENIX PHARMACEUTICALS LLC, priority 2014, published 2017).

How the values were obtained:
Assay type in all cases: cell-based
CCRF-CEM = experiment: In vitro inhibition, CellTiter-Glo (CTG) assay, CCRF-CEM; details: 72 hr exposure
Experimental: (§1) Cells were grown in RPMI-1640 supplemented with L-Glutamine and 10% FBS of the following cancer cell lines:
(§2) CCRF-CEM; CCRF-CEM-cytarabine resistant; HL-60;
(§3) 18, 96 well plates of each cell line were seeded with the optimized number of cells per well in a total volume of 50 μL per well. The plates were left overnight. Plate wells were seeded with 100 μL media for media control. The following day, cells were exposed to test compounds as described below. At the same time as drug exposure, a CTG assay was conducted on the 18th plate for the 0 hr count.
(§4) The compounds were added to cells and medium already on the plate to give desired final concentrations. 50 μL media were added to cell control wells, and 50 μL of mix added to vehicle control wells. 10 μM Doxorubicin was added to appropriate wells as control. Cells exposed to test compound were incubated at 37° C. for 72 hr followed by a CTG assay.
(§5) At the end of the 72 hr exposure period, plates were removed for a CellTiter-Glo (CTG) assay from a 37° C., 5% CO2 incubator and placed on the bench at room temperature for 30 mins. 100 μL of CellTiter-Glo reagent was added and mixed for 2 mins, followed by a further 10 min incubation at room temperature. Luminescence was recorded using Synergy 4.0.

[1] = tested on: CCRF-CEM-cytarabine resistant; experiment: In vitro inhibition, CellTiter-Glo (CTG) assay, CCRF-CEM-cytarabine resistant; details: 72 hr exposure
Experimental: as §1, §2, §3, §4, §5

HL-60 = experiment: In vitro inhibition, CellTiter-Glo (CTG) assay, HL-60; details: HL-60, 72 hr exposure
Experimental: as §1, §2, §3, §4, §5

SMILES	IC50 (CCRF-CEM; Homo sapiens) [µM]	IC50 [1] [µM]	IC50 (HL-60; Homo sapiens, HL-60, 72 h) [µM]	IC50 ([1]; 72 h) [µM]	IC50 (CCRF-CEM) [µM]	IC50 (HL-60) [µM]	IC50 (HL-60; Homo sapiens) [µM]
CCOC(=O)[C@H](C)NP1(=O)OC[C@H]2O[C@@H](n3cnc4c(N)nc(Cl)nc43)[C@@H](F)[C@@H]2O1 (stereo partly drawn) [Compound 10, Ethyl (2S)-2-[[(4aR6R,7S,7aR)-6-(6-amino-2-chloro-purin-9-yl)-7-fluoro-2-oxo-4a,6,7,7a-tetrahydro-4H-furo[3.2-d][1,3,2]dioxaphosphinin-2-yl]amino]propanoate]	< 1	25 to 100	1 to 10	–	–	–	–
C[C@H](NP(=O)(OCc1ccc([N+](=O)[O-])s1)OC[C@H]1O[C@@H](n2ccc(N)nc2=O)[C@@H](O)[C@@H]1O)C(=O)OCc1ccccc1 (single isomer, unassigned) [24f (diastereoisomer 1)]	< 1	–	10 to 25	10 to 25	–	–	–
Nc1ccn([C@@H]2O[C@H](COP(=O)(NCc3ccccc3)OCc3ccc([N+](=O)[O-])o3)[C@@H](O)[C@@H]2O)c(=O)n1 (single isomer, unassigned) [25 (diastereoisomer 2)]	–	10 to 25	–	–	< 1	1 to 10	–
CCOC(=O)[C@H](C)NP1(=O)OC[C@H]2O[C@@H](n3cnc4c(N)nc(Cl)nc43)[C@@H](F)[C@@H]2O1 (stereo partly drawn) [Compound 11, Ethyl (2S)-2-[[(4aR6R,7S,7aR)-6-(6-amino-2-chloro-purin-9-yl)-7-fluoro-2-oxo-4a,6,7,7a-tetrahydro-4H-furo[3.2-d][1,3,2]dioxaphosphinin-2-yl]amino]propanoate]	–	1 to 10	–	–	< 1	< 1	–
Nc1ccn([C@@H]2O[C@H](COP(=O)(OCc3ccc([N+](=O)[O-])o3)OCc3ccc([N+](=O)[O-])o3)[C@@H](O)[C@@H]2O)c(=O)n1 [Compound 24e, [(2R,3S,4S,5R)-5-(4-amino-2-oxo-pyrimidin-1-yl)-3,4-dihydroxy-tetrahydrofuran-2-yl]methyl bis[(5-nitro-2-furyl)methyl]phosphate]	< 1	10 to 25	–	–	–	–	< 1
Nc1ccn([C@@H]2O[C@H](COP(=O)(OCc3cnc([N+](=O)[O-])s3)OCc3cnc([N+](=O)[O-])s3)[C@@H](O)[C@@H]2O)c(=O)n1 [Compound 24b, [(2R,3S,4S,5R)-5-(4-amino-2-oxo-pyrimidin-1-yl)-3,4-dihydroxy-tetrahydrofuran-2-yl]methyl bis[(2-nitrothiazol-5-yl)methyl]phosphate]	< 1	10 to 25	–	–	–	–	< 1
Cn1c(COP(=O)(OCc2cnc([N+](=O)[O-])s2)OC[C@H]2O[C@@H](n3ccc(N)nc3=O)[C@@H](O)[C@@H]2O)cnc1[N+](=O)[O-] (stereo partly drawn) [Compound 24c, [(2R,3S,4S,5R)-5-(4-amino-2-oxo-pyrimidin-1-yl)-3,4-dihydroxy-tetrahydrofuran-2-yl]methyl (3-methyl-2-nitro-imidazol-4-yl)methyl (2-nitrothiazol-5-yl)methyl phosphate]	< 1	10 to 25	–	–	–	–	< 1
Nc1ccn([C@@H]2O[C@H](COP(=O)(NCc3ccccc3)OCc3ccc([N+](=O)[O-])o3)[C@@H](O)[C@@H]2O)c(=O)n1 (single isomer, unassigned) [25 (diastereoisomer 1)]	< 1	–	1 to 10	10 to 25	–	–	–
C[C@H](NP(=O)(OCc1ccc([N+](=O)[O-])s1)OC[C@H]1O[C@@H](n2ccc(N)nc2=O)[C@@H](O)[C@@H]1O)C(=O)OCc1ccccc1 (single isomer, unassigned) [24f (diastereoisomer 2)]	–	10 to 25	–	–	< 1	10 to 25	–

Continued, in another order:

IC50 (CCRF-CEM; Homo sapiens) [µM]	IC50 [1] [µM]	IC50 (HL-60; Homo sapiens, HL-60, 72 h) [µM]	IC50 ([1]; 72 h) [µM]	IC50 (CCRF-CEM) [µM]	IC50 (HL-60) [µM]	SMILES	IC50 (HL-60; Homo sapiens) [µM]
< 1	–	< 1	1 to 10	–	–	C[C@H](NP1(=O)OC[C@H]2O[C@@H](n3cnc4c(N)nc(Cl)nc43)[C@@H](F)[C@@H]2O1)C(=O)OCc1ccccc1 (single isomer, unassigned) [Compound 26a]	–
–	1 to 10	–	–	< 1	< 1	C[C@H](NP1(=O)OC[C@H]2O[C@@H](n3cnc4c(N)nc(Cl)nc43)[C@@H](F)[C@@H]2O1)C(=O)OCc1ccccc1 (single isomer, unassigned) [Compound 26b]	–
